Among the data in patent publication US20250206730A1 (AUTOTELIC BIO INC., priority 2022, published 2025) are IC50 values, retold here.

One test deals with T1, ALK5 kinase (Homo sapiens, UniProt P36897).
T1 sequence (P36897 34-503): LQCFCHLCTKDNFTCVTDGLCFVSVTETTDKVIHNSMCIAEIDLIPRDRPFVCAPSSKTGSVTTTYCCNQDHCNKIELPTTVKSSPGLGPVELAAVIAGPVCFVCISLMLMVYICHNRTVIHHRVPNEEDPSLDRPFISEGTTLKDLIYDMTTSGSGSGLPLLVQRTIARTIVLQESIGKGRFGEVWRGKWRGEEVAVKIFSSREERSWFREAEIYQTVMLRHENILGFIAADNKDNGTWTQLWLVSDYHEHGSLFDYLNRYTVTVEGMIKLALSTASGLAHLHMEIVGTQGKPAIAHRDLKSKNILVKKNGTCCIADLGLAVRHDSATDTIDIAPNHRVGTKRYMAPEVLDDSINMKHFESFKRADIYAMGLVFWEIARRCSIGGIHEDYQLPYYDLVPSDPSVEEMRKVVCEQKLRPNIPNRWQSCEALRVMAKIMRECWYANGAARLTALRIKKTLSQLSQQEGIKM
The experiment in a line: LanthaScreen Eu Kinase Binding Assay. Conditions: Kinase Tracer 178, Eu-anti-GST Antibody, read-out: IC50 Enzyme. In short, it runs like this: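 Compound (1% DMSO final) preincubated 30 min at RT with GST-tagged ALK5, then Eu-anti-GST antibody and Kinase Tracer 178 added for 60 min at RT. TR-FRET read at 340 nm excitation; 665/615 nm emission ratio falls as compound binding rises.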

The subject of the next test is TGF-β signaling. The experiment in a line: Assay for evaluating cellular inhibition of TGF-β signaling, 4T1 (SBE-luc2P) luciferase reporter. Type of test: cell-based. Conditions: Mus musculus, 4T1, 4T1 (SBE-luc2P) transient pool, 0.2% FBS, 2 h pre-treatment, TGF-β1 2 ng/mL 24 h; read-out: IC50 4T1 Cell. The method, boiled down: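 4T1 cells transiently carrying SBE-luc2P (6×10^3/well, 0.2% FBS, ~60% confluence) or HEK293 SBE-reporter stable cells (2.5×10^4/well, 0.5% FBS, ~80% confluence) pre-treated with compound for 2 h. TGF-β1 (2 ng/mL) then added for 24 h at 37 °C; luciferase luminescence read from lysates.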
(Reporter assays use an easily measured gene product as a stand-in for the process of interest.)

As for `O=C(NO)c1ccc(Nc2cc(Oc3sc(C4CC4)nc3-c3ccccc3)ccn2)cc1` [A-139, 4-((4-((2-Cyclopropyl-4-phenylthiazol-5-yl)oxy)pyridin-2-yl)amino)-N-hydroxybenzamide], the values for the IC50 on ALK5 kinase and in the test with TGF-β signaling were under 100 nM and over 100 nM, respectively.

Consider `Cc1cccc(-c2nc(N(C)C)sc2Oc2ccnc(Nc3ccc(C(N)=O)cn3)c2)n1` [A-284, 6-((4-((2-(Dimethylamino)-4-(6-methylpyridin-2-yl)thiazol-5-yl)oxy)pyridin-2-yl)amino)nicotinamide], for which the half-inhibitory concentration (IC50) at ALK5 kinase and with TGF-β signaling was under 100 nM each time.

On to `Cc1cccc(-c2nc(C(F)(F)F)sc2Oc2ccnc(Nc3cccc(S(N)(=O)=O)c3)c2)n1` [A-289, 3-((4-((4-(6-Methylpyridin-2-yl)-2-(trifluoromethyl)thiazol-5-yl)oxy)pyridin-2-yl)amino)benzenesulfonamide], for which the half-inhibitory concentration (IC50) on ALK5 kinase and in the test on TGF-β signaling was under 100 nM throughout.

Turning to `CCc1nc(-c2cccc(C)n2)c(Oc2ccnc(Nc3cccc(C(=O)NC)c3)c2)s1` [A-259, 3-((4-((2-Ethyl-4-(6-methylpyridin-2-yl)thiazol-5-yl)oxy)pyridin-2-yl)amino)-N-methylbenzamide], the 50% inhibitory concentration (IC50) at ALK5 kinase and in the test on TGF-β signaling was under 100 nM each time.

In the case of `O=C(O)c1ccc(Nc2cc(Oc3sc(C4CCCCC4)nc3-c3ccccc3)ccn2)nc1` [A-178, 6-((4-((2-cyclohexyl-4-phenylthiazol-5-yl)oxy)pyridin-2-yl)amino)nicotinic acid], the half-maximal inhibitory concentration (IC50) on ALK5 kinase and with TGF-β signaling was over 100 nM each time.

Consider `Cc1nc(-c2ccccc2)c(Oc2ccnc(Nc3cccc(CCc4nn[nH]n4)c3)c2)s1` [A-114, N-(3-(2-(2H-Tetrazol-5-yl)ethyl)phenyl)-4-((2-methyl-4-phenylthiazol-5-yl)oxy)pyridin-2-amine], for which the half-inhibitory concentration (IC50) at ALK5 kinase and in the test with TGF-β signaling was under 100 nM throughout.

In the case of `CC(C)(O)c1cccc(Nc2cc(Oc3sc(NC4CC4)nc3-c3ccccc3)ccn2)c1` [A-44, 2-(3-((4-((2-(Cyclopropylamino)-4-phenylthiazol-5-yl)oxy)pyridin-2-yl)amino)phenyl)propan-2-ol], the half-maximal inhibitory concentration (IC50) – broadly, the concentration at which inhibition is half-maximal – is under 100 nM on ALK5 kinase and over 100 nM in the test on TGF-β signaling.

For `O=C(O)c1cccc(Nc2cc(Oc3sc(C(F)(F)F)nc3-c3ccccc3)ccn2)c1` [A-151, 3-((4-((4-Phenyl-2-(trifluoromethyl)thiazol-5-yl)oxy)pyridin-2-yl)amino)benzoic acid], the concentration for half-maximal inhibition (IC50) on ALK5 kinase was under 100 nM; in the test on TGF-β signaling, over 100 nM.

`NS(=O)(=O)c1cccc(Nc2cc(Oc3sc(NC4CC4)nc3-c3ccccc3)ccn2)c1` [A-45, 3-((4-((2-(Cyclopropylamino)-4-phenylthiazol-5-yl)oxy)pyridin-2-yl)amino)benzenesulfonamide]: the half-maximal inhibitory concentration (IC50) at ALK5 kinase was under 100 nM; in the test with TGF-β signaling it was over 100 nM.

`CN(C)c1nc(-c2ccccc2)c(Oc2ccnc(Nc3ccc(C(C)(C)O)nc3)c2)s1` [A-159, 2-(5-((4-((2-(Dimethylamino)-4-phenylthiazol-5-yl)oxy)pyridin-2-yl)amino)pyridin-2-yl)propan-2-ol]: the results for the 50% inhibitory concentration (IC50) on ALK5 kinase and with TGF-β signaling were under 100 nM and over 100 nM, respectively.

Turning to `O=C(O)c1ccc(Nc2cc(Oc3sc(C4CC4)nc3-c3ccccc3)ccn2)nc1` [A-132, 6-((4-((2-Cyclopropyl-4-phenylthiazol-5-yl)oxy)pyridin-2-yl)amino)nicotinic acid], the IC50 at ALK5 kinase and in the test on TGF-β signaling was under 100 nM each time.

Turning to `CCc1nc(-c2cccc(C)n2)c(Oc2ccnc(Nc3cccc(C(N)=O)c3)c2)s1` [A-258, 3-((4-((2-Ethyl-4-(6-methylpyridin-2-yl)thiazol-5-yl)oxy)pyridin-2-yl)amino)benzamide], the IC50 on ALK5 kinase and in the test on TGF-β signaling was under 100 nM in each case.

As for `CNC(=O)c1ccc(Nc2cc(Oc3sc(N(C)C)nc3-c3ccccc3)ccn2)cc1` [A-164, 4-((4-((2-(Dimethylamino)-4-phenylthiazol-5-yl)oxy)pyridin-2-yl)amino)-N-methylbenzamide], the half-inhibitory concentration (IC50) at ALK5 kinase is under 100 nM; in the test on TGF-β signaling it was over 100 nM.

In the case of `CNC(=O)c1cccc(Nc2cc(Oc3sc(C4CC4)nc3-c3ccccc3)ccn2)n1` [A-125, 6-((4-((2-Cyclopropyl-4-phenylthiazol-5-yl)oxy)pyridin-2-yl)amino)-N-methylpicolinamide], the IC50 at ALK5 kinase and with TGF-β signaling was under 100 nM each time.

As to `O=C(O)c1ccc(Nc2cc(Oc3sc(C4CC4)nc3-c3ccccc3)ccn2)cc1` [A-136, 4-((4-((2-Cyclopropyl-4-phenylthiazol-5-yl)oxy)pyridin-2-yl)amino)benzoic acid], the concentration for half-maximal inhibition (IC50) at ALK5 kinase and with TGF-β signaling was under 100 nM in each case.

For `CNC(=O)c1ccc(Nc2cc(Oc3sc(C4CCCC4)nc3-c3ccccc3)ccn2)nc1` [A-176, 6-((4-((2-Cyclopentyl-4-phenylthiazol-5-yl)oxy)pyridin-2-yl)amino)-N-methylnicotinamide], the IC50 at ALK5 kinase and in the test with TGF-β signaling was over 100 nM in each case.

Regarding `CCc1nc(-c2cccc(C)n2)c(Oc2ccnc(Nc3cc(C(=O)NC)ccn3)c2)s1` [A-268, 2-((4-((2-Ethyl-4-(6-methylpyridin-2-yl)thiazol-5-yl)oxy)pyridin-2-yl)amino)-N-methylisonicotinamide], the 50% inhibitory concentration (IC50) on ALK5 kinase and in the test on TGF-β signaling was under 100 nM each time.

In the case of `CCc1nc(-c2cccc(C)n2)c(Oc2ccnc(Nc3cccc(C(=O)O)n3)c2)s1` [A-254, 6-((4-((2-Ethyl-4-(6-methylpyridin-2-yl)thiazol-5-yl)oxy)pyridin-2-yl)amino)picolinic acid], the half-inhibitory concentration (IC50) at ALK5 kinase was over 100 nM; in the test with TGF-β signaling it was under 100 nM.

As for `NC(=O)c1ccc(Nc2cc(Oc3sc(C(F)(F)F)nc3-c3ccccc3)ccn2)nc1` [A-146, 6-((4-((4-Phenyl-2-(trifluoromethyl)thiazol-5-yl)oxy)pyridin-2-yl)amino)nicotinamide], the concentration for half-maximal inhibition (IC50) at ALK5 kinase and in the test on TGF-β signaling was under 100 nM each time.

As for `CS(=O)(=O)Nc1ccc(Nc2cc(Oc3sc(C4CC4)nc3-c3ccccc3)ccn2)cc1` [A-128, N-(4-((4-((2-Cyclopropyl-4-phenylthiazol-5-yl)oxy)pyridin-2-yl)amino)phenyl)methanesulfonamide], the concentration for half-maximal inhibition (IC50) at ALK5 kinase and in the test with TGF-β signaling was under 100 nM throughout.

`CCc1nc(-c2ccccc2)c(Oc2ccnc(Nc3ccc(S(N)(=O)=O)cc3)c2)s1` [A-184, 4-((4-((2-Ethyl-4-phenylthiazol-5-yl)oxy)pyridin-2-yl)amino)benzenesulfonamide]: the values for the half-inhibitory concentration (IC50) at ALK5 kinase and in the test on TGF-β signaling were under 100 nM and over 100 nM, respectively.

In the case of `CN(C)c1nc(-c2ccccc2)c(Oc2ccnc(Nc3ccc(C(N)=O)cc3)c2)s1` [A-157, 4-((4-((2-(Dimethylamino)-4-phenylthiazol-5-yl)oxy)pyridin-2-yl)amino)benzamide], the half-maximal inhibitory concentration (IC50) on ALK5 kinase and in the test on TGF-β signaling was under 100 nM each time.

`NS(=O)(=O)c1ccc(Nc2cc(Oc3sc(C4CC4)nc3-c3ccccc3)ccn2)cc1` [A-118, 4-((4-((2-Cyclopropyl-4-phenylthiazol-5-yl)oxy)pyridin-2-yl)amino)benzenesulfonamide]: the figures for the IC50 on ALK5 kinase and in the test with TGF-β signaling were under 100 nM and over 100 nM, respectively.

`Cc1nc(-c2ccccc2)c(Oc2ccnc(Nc3cncc(C(N)=O)c3)c2)s1` [A-92, 5-((4-((2-Methyl-4-phenylthiazol-5-yl)oxy)pyridin-2-yl)amino)nicotinamide]: the IC50 at ALK5 kinase and in the test with TGF-β signaling was under 100 nM throughout.

Take `NC(=O)c1ccc(Nc2cc(Oc3sc(C4CC4)nc3-c3ccccc3)ccn2)nc1` [A-129, 6-((4-((2-Cyclopropyl-4-phenylthiazol-5-yl)oxy)pyridin-2-yl)amino)nicotinamide]: the half-maximal inhibitory concentration (IC50) at ALK5 kinase and in the test on TGF-β signaling was under 100 nM each time.

Regarding `Cc1cccc(-c2nc(N(C)C)sc2Oc2ccnc(Nc3ccc(C(=O)O)cn3)c2)n1` [A-285, 6-((4-((2-(Dimethylamino)-4-(6-methylpyridin-2-yl)thiazol-5-yl)oxy)pyridin-2-yl)amino)nicotinic acid], the IC50 at ALK5 kinase and with TGF-β signaling was under 100 nM in each case.

Consider `Cc1cccc(-c2nc(C(F)(F)F)sc2Oc2ccnc(Nc3ccc(C(N)=O)cn3)c2)n1` [A-290], for which the IC50 at ALK5 kinase and in the test with TGF-β signaling was under 100 nM throughout.

Take `CC(C)c1nc(-c2ccccc2)c(Oc2ccnc(Nc3ccc(C(C)(C)O)nc3)c2)s1` [A-224, 2-(5-((4-((2-Isopropyl-4-phenylthiazol-5-yl)oxy)pyridin-2-yl)amino)pyridin-2-yl)propan-2-ol]: the IC50 was under 100 nM on ALK5 kinase and over 100 nM in the test on TGF-β signaling.

For `CN(C)c1nc(-c2ccccc2)c(Oc2ccnc(Nc3ccc(S(N)(=O)=O)cc3)c2)s1` [A-156, 4-((4-((2-(Dimethylamino)-4-phenylthiazol-5-yl)oxy)pyridin-2-yl)amino)benzenesulfonamide], the half-inhibitory concentration (IC50) at ALK5 kinase was under 100 nM; in the test on TGF-β signaling, over 100 nM.
